The subject of the first assay is post-synaptic Dopamine (D.A.) receptors. Description: Inhibition of apomorphine induced climbing in the mouse. The format is in vivo. As to conditions: dose for 50% inhibition of apomorphine (1 mg/kg s.c.) induced climbing, male CD1 mice, ½ hour post dosing po; 30 min.
`Cc1ccc(CN2[C@@H]3CCC[C@H]2C[C@H](N2Cc4cc(Cl)ccc4C2=O)C3)cc1` [Compound E2] came in with an ED50 of 0.5 mg/kg.
Still for that read-out and setting: the same measure for `Cc1ccc(CN2[C@@H]3CCC[C@H]2C[C@H](N2Cc4cc(N)ccc4C2=O)C3)cc1` [Compound E6, 5-Amino-2-[3β-N-(9-(4^1-methylbenzyl)-9-azabicyclo[3.3.1]nonyl)]phthalimidine]: 0.3 mg/kg.
Still for that read-out and setting: the same measure for “4-Chloro- and 6-Chloro-5-amino-2-(3β-N-(9-(4^1-methylbenzyl) -9-azabicyclo[3.3.1]nonyl)]phthalimidine [Compound E8]”: 0.5 mg/kg.
The same measure, in the same setting: the same measure for `O=C1c2ccc(Cl)cc2CN1[C@@H]1C[C@H]2CCC[C@@H](C1)N2Cc1ccc(F)cc1` [Compound E3]: 1.2 mg/kg; for `Cc1ccc(CN2[C@@H]3CCC[C@H]2C[C@H](N2Cc4ccccc4C2=O)C3)cc1` [Compound E1]: 1.1 mg/kg; for `Nc1ccc2c(c1)CN([C@@H]1C[C@H]3CCC[C@@H](C1)N3Cc1ccc(F)cc1)C2=O` [Compound E5, 5-Amino-2-(3β-N-(9-(4^1-fluorobenzyl)-9-azabicyclo[3.3.1]nonyl)]phthalimidine]: 0.6 mg/kg.

The same assay, now with this note: subcutaneous dosing; dose for 50% inhibition of apomorphine (1 mg/kg s.c.) induced climbing, male CD1 mice; 30 min.
Turning to `CN(C)S(=O)(=O)c1ccc2c(c1)C(=O)N([C@@H]1C[C@H]3CC[C@@H](C1)N3Cc1ccccc1)C2` [Compound E9, 6-Dimethylaminosulphonyl-2-N-[3β(8-benzyl-8-azabicyclo [3.2.1]octyl)]phthalimidine], the ED50 is listed as 3.0 (subcutaneous dosing) mg/kg.
